Values quoted from earlier work as cited in patent US20020144302A1 (priority 1996, published 2002).

Conditions: man; daily dose around 200 mg (Vidal, 1996)

CC(C)OC(=O)C(C)(C)Oc1ccc(C(=O)c2ccc(Cl)cc2)cc1 [fenofibrate]
plasma concentration: about 15 μg/ml
